Reference: ChEMBL document CHEMBL1201862, “PubChem BioAssay data set” (2004)
Calls of active or inactive are those of the source.

Assays:
[1] = biological target: Luciferin 4-monooxygenase (Photinus pyralis, UniProt P08659); experiment: inhibition of purified Photinus pyralis luciferase – biochemical, luminescence, dose response (AID 1891)
[2] = Luminescence Cell-Based Dose Confirmation HTS to Identify Inhibitors of Platelet Dense Granule Release. [Related pubchem assays: 1663 (Primary HTS), 1678 (Summary of Project)]; type: functional
[3] = biological target: T1, Ubiquitin-conjugating enzyme E2 N (Homo sapiens, UniProt P61088); type: functional;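 note: Dose-response confirmation in a TR-FRET assay detecting UBC13-driven polyubiquitin chain formation, inhibition measured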
T1 sequence (P61088 whole entry): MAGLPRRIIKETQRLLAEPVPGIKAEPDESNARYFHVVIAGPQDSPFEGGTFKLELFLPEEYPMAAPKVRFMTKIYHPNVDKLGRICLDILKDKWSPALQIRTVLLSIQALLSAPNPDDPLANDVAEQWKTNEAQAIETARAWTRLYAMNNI

Cytochrome P450 2C19 = Cytochrome P450 2C19 (Homo sapiens, UniProt P33261); experiment: Cytochrome panel assay with activity outcomes. Panel member name: p450-cyp2c19 Compounds with AC50 equal or less than 10 uM are considered active; type: functional; conditions: read-out: AC50
Sequence of Cytochrome P450 2C19 (P33261 whole entry): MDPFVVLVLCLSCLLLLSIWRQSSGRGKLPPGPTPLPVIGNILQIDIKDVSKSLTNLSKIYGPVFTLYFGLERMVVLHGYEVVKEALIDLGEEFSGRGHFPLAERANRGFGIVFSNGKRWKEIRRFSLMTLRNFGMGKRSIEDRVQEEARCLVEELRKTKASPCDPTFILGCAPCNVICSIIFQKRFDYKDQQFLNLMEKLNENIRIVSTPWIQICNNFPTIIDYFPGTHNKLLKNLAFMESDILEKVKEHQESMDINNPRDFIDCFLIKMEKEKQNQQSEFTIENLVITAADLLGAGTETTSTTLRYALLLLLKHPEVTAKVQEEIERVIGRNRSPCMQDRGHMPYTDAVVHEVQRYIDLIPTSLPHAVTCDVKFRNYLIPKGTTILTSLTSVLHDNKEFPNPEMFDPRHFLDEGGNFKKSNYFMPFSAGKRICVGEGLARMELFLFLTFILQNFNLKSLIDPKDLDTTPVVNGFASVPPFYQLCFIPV

Cytochrome P450 2D6 = Cytochrome P450 2D6 (Homo sapiens, UniProt P10635);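 note: CYP2D6 member of a cytochrome P450 panel assay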
Sequence of Cytochrome P450 2D6 (P10635 whole entry): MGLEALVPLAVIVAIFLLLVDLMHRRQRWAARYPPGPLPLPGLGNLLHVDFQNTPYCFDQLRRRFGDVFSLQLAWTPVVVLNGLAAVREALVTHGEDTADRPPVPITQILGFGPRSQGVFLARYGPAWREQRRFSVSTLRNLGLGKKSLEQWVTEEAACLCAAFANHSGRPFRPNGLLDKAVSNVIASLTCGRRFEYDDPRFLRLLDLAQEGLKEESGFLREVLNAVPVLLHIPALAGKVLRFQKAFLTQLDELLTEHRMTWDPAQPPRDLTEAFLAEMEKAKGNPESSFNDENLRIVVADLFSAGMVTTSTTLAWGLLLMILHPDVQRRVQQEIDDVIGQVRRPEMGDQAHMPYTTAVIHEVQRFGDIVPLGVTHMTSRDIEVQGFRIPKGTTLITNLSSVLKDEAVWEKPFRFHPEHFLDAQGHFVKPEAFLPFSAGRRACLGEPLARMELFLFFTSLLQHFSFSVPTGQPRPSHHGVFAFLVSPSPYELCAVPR

Cytochrome P450 2C9 = Cytochrome P450 2C9 (Homo sapiens, UniProt P11712)
Sequence of Cytochrome P450 2C9 (P11712 whole entry): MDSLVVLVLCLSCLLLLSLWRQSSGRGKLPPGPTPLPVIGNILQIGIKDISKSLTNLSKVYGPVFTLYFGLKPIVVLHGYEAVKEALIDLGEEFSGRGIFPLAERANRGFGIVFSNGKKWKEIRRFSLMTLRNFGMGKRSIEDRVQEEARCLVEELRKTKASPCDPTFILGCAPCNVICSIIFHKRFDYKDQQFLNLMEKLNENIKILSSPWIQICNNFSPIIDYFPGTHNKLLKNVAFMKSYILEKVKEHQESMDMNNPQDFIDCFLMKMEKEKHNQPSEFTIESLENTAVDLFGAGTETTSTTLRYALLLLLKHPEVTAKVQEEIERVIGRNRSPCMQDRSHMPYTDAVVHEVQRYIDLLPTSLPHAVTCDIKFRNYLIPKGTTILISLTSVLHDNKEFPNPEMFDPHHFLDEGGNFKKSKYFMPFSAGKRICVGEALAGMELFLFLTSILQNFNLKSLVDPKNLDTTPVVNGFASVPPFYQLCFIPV

[4] = biological target: T2, Heat shock factor protein 1 (Mus musculus, UniProt P38532); experiment: enhancement of HSF1-driven luciferase signal – cell-based, NIH3T3, luminescence, dose retest, confirmation (AID 435004); type: functional;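 note: stress induced by proteasome inhibitor MG132 added 30 min after compound; luciferase reporter driven by HSF1 response element in NIH3T3 cells; actives raise luminescence as potentiators of the MG132 stress response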
T2 sequence (P38532 whole entry): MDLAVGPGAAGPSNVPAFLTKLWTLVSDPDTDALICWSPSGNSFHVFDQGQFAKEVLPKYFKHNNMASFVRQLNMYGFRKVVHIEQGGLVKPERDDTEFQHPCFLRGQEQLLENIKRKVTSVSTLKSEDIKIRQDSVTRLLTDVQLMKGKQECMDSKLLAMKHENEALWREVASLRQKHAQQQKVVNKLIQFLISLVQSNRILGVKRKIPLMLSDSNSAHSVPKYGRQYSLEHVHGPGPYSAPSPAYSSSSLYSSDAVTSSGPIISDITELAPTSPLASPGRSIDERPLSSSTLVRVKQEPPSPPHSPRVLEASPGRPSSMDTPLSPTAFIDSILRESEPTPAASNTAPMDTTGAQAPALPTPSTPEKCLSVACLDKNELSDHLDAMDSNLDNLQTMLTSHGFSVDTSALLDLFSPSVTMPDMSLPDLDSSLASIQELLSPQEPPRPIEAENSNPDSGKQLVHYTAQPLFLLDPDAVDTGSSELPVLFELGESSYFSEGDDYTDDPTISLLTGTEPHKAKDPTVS

[5] = biological target: T3, Replicative DNA helicase DnaB (Mycobacterium tuberculosis, UniProt P9WMR3); experiment: DnaB intein splicing inhibitors, dose response, biochemical, cell-free fluorescence (AID 449749); type: functional
T3 sequence (P9WMR3 whole entry): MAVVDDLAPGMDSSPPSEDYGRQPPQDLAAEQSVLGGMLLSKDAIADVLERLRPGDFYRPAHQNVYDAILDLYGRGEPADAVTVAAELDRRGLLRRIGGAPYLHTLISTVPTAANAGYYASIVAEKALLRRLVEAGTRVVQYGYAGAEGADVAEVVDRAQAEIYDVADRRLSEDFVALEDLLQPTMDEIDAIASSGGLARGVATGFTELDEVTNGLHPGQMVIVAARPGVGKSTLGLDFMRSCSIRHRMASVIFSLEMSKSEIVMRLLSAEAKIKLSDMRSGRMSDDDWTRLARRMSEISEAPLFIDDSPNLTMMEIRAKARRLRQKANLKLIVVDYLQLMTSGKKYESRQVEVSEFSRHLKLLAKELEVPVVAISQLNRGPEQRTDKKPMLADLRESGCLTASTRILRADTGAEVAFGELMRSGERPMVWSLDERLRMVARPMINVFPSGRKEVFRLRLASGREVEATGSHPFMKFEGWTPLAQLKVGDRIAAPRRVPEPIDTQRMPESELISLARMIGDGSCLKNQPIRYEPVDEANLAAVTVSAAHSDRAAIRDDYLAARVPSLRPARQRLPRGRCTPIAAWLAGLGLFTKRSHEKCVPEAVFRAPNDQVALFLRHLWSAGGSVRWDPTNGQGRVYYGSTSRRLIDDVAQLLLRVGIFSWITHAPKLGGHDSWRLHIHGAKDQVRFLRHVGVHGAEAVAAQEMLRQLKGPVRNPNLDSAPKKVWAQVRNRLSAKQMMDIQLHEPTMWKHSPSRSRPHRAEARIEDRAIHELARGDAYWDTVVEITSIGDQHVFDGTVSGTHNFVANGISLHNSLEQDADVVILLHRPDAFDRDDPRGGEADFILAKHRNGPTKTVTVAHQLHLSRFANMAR

Protein RecA = biological target: T4, Protein RecA (Mycobacterium tuberculosis, UniProt P9WHJ3); experiment: Fluorescence Cell-Free Homogeneous Dose Retest to Identify Inhibitors of RecA-Intein Splicing Activity. [Related pubchem assays (depositor defined):AID2097, AID2223, AID489010, AID492950]; type: functional
T4 sequence (P9WHJ3 whole entry): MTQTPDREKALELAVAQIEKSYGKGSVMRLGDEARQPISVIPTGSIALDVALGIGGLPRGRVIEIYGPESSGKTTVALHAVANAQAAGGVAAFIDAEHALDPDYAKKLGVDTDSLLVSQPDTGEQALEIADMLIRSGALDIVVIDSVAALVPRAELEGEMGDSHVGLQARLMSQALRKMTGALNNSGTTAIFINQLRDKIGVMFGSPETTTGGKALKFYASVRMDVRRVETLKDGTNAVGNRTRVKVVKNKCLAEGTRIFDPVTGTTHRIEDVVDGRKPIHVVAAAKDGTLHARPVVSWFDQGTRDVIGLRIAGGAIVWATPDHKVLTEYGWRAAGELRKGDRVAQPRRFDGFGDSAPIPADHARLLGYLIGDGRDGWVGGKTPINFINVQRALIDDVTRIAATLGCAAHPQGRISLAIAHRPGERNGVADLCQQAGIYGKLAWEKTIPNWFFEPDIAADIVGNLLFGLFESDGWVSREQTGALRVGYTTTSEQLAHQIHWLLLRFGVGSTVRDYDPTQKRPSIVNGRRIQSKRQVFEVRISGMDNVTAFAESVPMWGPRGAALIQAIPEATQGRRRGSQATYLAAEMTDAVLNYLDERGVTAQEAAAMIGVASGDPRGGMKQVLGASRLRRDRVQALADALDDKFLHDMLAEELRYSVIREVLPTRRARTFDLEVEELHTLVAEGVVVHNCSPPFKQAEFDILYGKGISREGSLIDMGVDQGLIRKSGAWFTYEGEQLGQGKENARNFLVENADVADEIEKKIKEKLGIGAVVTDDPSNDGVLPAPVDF

cells = type: functional
Cytochrome P450 3A4 = Cytochrome P450 3A4 (Homo sapiens, UniProt P08684);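 note: CYP3A4 tested as one member of a cytochrome P450 panel screen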
Sequence of Cytochrome P450 3A4 (P08684 whole entry): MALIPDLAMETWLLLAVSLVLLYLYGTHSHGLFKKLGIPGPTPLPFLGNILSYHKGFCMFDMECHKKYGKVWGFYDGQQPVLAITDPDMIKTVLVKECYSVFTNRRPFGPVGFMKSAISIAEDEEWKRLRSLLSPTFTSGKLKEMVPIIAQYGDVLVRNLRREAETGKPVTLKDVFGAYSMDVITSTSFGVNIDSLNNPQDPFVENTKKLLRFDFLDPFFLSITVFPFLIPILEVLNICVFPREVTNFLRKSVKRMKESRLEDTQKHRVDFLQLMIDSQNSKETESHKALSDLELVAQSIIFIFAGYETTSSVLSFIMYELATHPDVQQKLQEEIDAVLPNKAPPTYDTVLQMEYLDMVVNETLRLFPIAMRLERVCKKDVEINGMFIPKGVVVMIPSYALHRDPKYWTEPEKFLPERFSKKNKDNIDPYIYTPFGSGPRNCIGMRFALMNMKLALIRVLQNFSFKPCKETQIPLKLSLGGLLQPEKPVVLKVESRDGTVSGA

Sequence of Luciferin 4-monooxygenase (P08659 whole entry): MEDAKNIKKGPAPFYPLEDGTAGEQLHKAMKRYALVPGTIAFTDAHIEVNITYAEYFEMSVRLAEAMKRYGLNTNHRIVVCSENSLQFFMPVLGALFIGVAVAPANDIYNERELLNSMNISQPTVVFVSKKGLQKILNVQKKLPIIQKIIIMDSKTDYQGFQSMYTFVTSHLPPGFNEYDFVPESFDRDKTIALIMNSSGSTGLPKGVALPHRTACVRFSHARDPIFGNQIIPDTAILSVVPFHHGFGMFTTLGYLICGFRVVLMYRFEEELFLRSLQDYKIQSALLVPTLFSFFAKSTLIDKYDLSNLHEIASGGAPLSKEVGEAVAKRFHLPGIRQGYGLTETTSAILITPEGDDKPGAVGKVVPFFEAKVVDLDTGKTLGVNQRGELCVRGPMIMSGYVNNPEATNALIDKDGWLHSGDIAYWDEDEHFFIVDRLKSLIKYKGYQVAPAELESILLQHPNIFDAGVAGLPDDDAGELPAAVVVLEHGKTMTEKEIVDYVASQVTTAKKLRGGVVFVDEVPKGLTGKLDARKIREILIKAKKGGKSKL

For `CCCc1cc(=O)oc2c(C)c(OCC(=O)Nc3ccc(CN4CCOCC4)cc3)ccc12`, the EC50 [1] was > 112 µM (not active) and the EC50 [2] was > 112 µM (not active).
For `CCCC[C@@H]1CN=C(N)N1CCc1cc(C(F)(F)F)cc(C(F)(F)F)c1`, the IC50 [3] was > 20 µM (inactive).
For `COc1cc(O)ccc1C=O`, the EC50 [1] was > 112 µM (not active) and the EC50 [2] was > 112 µM (not active).
For `COc1ccc(Oc2ncc3nc(C)c(=O)n(-c4ccccc4)c3n2)cc1`, the AC50 (Cytochrome P450 2C19) was 39.8 µM (inconclusive), the AC50 (Cytochrome P450 2D6) was 39.8 µM (inconclusive) and the AC50 (Cytochrome P450 2C9) was 10 µM (inconclusive).
For `O=C(c1cccnc1S)N1CCN(S(=O)(=O)c2ccc(Br)cc2Cl)CC1`, the EC50 [4] was > 260 µM (inactive).
With `COc1cccc(C2CC(C(F)(F)F)n3ncc(C(=O)O)c3N2)c1` (stereo not given) the EC50 [1] was > 112 µM (not active) and the EC50 [2] was > 112 µM (not active).
For `CCOC(=O)c1ccc(NC(=O)CCc2ccc(C)o2)cc1`, the EC50 [1] was > 112 µM (not active) and the EC50 [2] was > 112 µM (not active).
With `COc1ccc(NC(=O)C2CCCN(c3nn4c(=O)cc(C)nc4s3)C2)c(OC)c1` (stereo not given) the EC50 [1] was > 112 µM (not active) and the EC50 [2] was > 112 µM (not active).
For `C[C@@H]1CC[C@H]2C(=O)O[C@H](CN=[N+]=[N-])CN2[C@@H]1c1ccc(Br)cc1`, the AC50 (Cytochrome P450 2D6) was 7.94 µM (inconclusive) and the AC50 (Cytochrome P450 2C9) was 3.16 µM (inconclusive).
For `COC(=O)C1=C(C)N(Cc2ccccc2)C(NCc2cc(OC)c(OC)c(OC)c2)=N[C@H]1CCc1ccccc1`, the IC50 [3] was > 20 µM (inactive).
In the case of `COc1ccc(N2CCN(c3nc4c(c(=O)n(C)c(=O)n4C)n3Cc3ccccc3)CC2)cc1`, the EC50 [1] was 18 µM (active) and the EC50 [2] was > 112 µM (not active).
In the case of `CCN(CC)S(=O)(=O)c1ccc(N2CCN(S(=O)(=O)c3ccccc3C#N)CC2)nc1`, the AC50 [5] was > 380 µM (inactive) and the EC50 (Protein RecA) was > 380 µM (inactive).
For `CC(=O)NC(c1cc(Cl)c2ccccc2c1O)C(C)C` (stereo not given), the IC50 [3] was > 20 µM (inactive).
For `CCN1C(=O)c2cccc3c(S(=O)(=O)Nc4ncccc4C)ccc1c23`, the EC50 [4] was > 260 µM (inactive).
In the case of `COc1cc(CNCC(O)c2ccccc2)ccc1OCc1ccc(Cl)nc1` (stereo not given), the EC50 [4] was > 260 µM (inactive).
For `Cc1c(NC(=O)CSC(=S)N2CCCC2)c(=O)n(-c2ccccc2)n1C`, the EC50 [1] was > 112 µM (not active) and the EC50 [2] was 25.5 µM (active).
With `COC(=O)c1ccccc1NC(=S)NC(=O)c1ccc(C)cc1` the AC50 [5] was 0.452 µM (active) and the EC50 (Protein RecA) was 0.239 µM (active).
With `O=C(OCc1ccc([N+](=O)[O-])cc1)c1ccc2ccccc2n1` the IC50 (cells) was 18 µM (active).
In the case of `COc1ccccc1NC(=O)CSc1nc2c(sc3ccccc32)c(=O)n1CCN(C)C`, the AC50 [5] was 58.7 µM (active) and the EC50 (Protein RecA) was 12.9 µM (active).
In the case of `Cc1ccnc(N2C(=O)C3C4CC(C(Br)C4Br)C3C2=O)c1` (stereo not given), the AC50 (Cytochrome P450 3A4) was 25.1 µM (inconclusive) and the AC50 (Cytochrome P450 2C9) was 17.8 µM (inconclusive).
With `CN(Cc1cc(C(C)(C)C)cc(Br)c1O)Cc1cc(C(C)(C)C)cc(Br)c1O` the AC50 (Cytochrome P450 2D6) was 2.51 µM (inconclusive) and the AC50 (Cytochrome P450 2C9) was 3.98 µM (inconclusive).
For `CCCCOc1ccc(-c2nnn(C(C)C(=O)OCC)n2)cc1` (stereo not given), the IC50 (cells) was 2.83 µM (active).
For `C/C=C1\COC(C(=O)NCCN2CCCC2)(C(F)(F)F)C=C1C=C1CCCCC1` (stereo not given), the IC50 [3] was > 20 µM (inactive).
With `COc1ccc(CNC(=O)N[C@@H](CC(C)C)C(=O)O)cc1OC` the EC50 [1] was > 112 µM (not active) and the EC50 [2] was > 112 µM (not active).
For `Cc1ccc(S(=O)(=O)N2CCC(C(=O)NCc3cccnc3)CC2)cc1`, the AC50 (Cytochrome P450 2C19) was 17.8 µM (inconclusive), the AC50 (Cytochrome P450 2D6) was 12.6 µM (inconclusive) and the AC50 (Cytochrome P450 2C9) was 6.31 µM (inconclusive).
With `CCOC(=O)c1c(NC(=O)COC(=O)c2ncc(Cl)c(Cl)c2Cl)sc(C(=O)N(C)C)c1C` the AC50 [5] was 14.1 µM (active) and the EC50 (Protein RecA) was 45.5 µM (active).
For `COC(=O)/C=C/CSC1=N/C(=C/c2ccc(-n3cncn3)cc2)C(=O)N1`, the AC50 (Cytochrome P450 2C9) was 11.2 µM (inconclusive).
With `C#CCOCCOCCOCCNc1nc(N2CCN(C(=O)[C@H]([C@@H](C)CC)n3cc([C@@H](N)CC(C)C)nn3)CC2)nc(N2CCN(C(=O)[C@H](Cc3ccc(O)cc3)n3cc([C@@H](N)C(C)CC)nn3)CC2)n1` (stereo not given in full) the IC50 [3] was > 20 µM (inactive).
With `CCOCCCN=C(S)Nc1ccc2nc(N3CCOCC3)cc(C)c2c1` the EC50 [4] was > 260 µM (inactive).
For `COc1ccc(-c2cc(C(F)(F)F)nc(SCC(=O)N3CCOCC3)n2)cc1OC`, the EC50 [1] was > 112 µM (not active) and the EC50 [2] was 15.8 µM (active).
In the case of `CC1CCN(c2ccc(C=O)o2)CC1`, the EC50 [4] was > 260 µM (inactive).
With `COc1[nH]nc(C(=O)Nc2cc(F)ccc2C)c1[N+](=O)[O-]` the IC50 (cells) was > 50 µM (active).
In the case of `C=CCn1c(S)nnc1C(C)NC(=O)c1ccccc1` (stereo not given), the AC50 (Cytochrome P450 2C9) was 17.8 µM (inconclusive).
In the case of `Cc1cc(C)cc(NC(=O)CN2C(=O)NC(C)(c3ccccc3)C2=O)c1` (stereo not given), the EC50 [4] was > 260 µM (inactive).
With `O=C(CC1Oc2ccccc2NC1=O)NC1CCCC1` (stereo not given) the EC50 [1] was > 112 µM (not active) and the EC50 [2] was > 112 µM (not active).
With `Cn1c(SCc2cccc(C(F)(F)F)c2)nnc1-c1ccco1` the EC50 [4] was > 260 µM (inactive).
For `COc1cc(C#Cc2c(-c3cncn3C)n(C)c3ccc(Br)cc23)cc(OC)c1`, the IC50 [3] was > 20 µM (inactive).
For `Cc1cccc(CC(C)NC(=O)c2oc3c(F)cccc3c2C)n1` (stereo not given), the EC50 [4] was > 260 µM (inactive).
For `CC(=O)Nc1ccc(OCC(O)Cn2cnc3ccccc32)cc1` (stereo not given), the AC50 (Cytochrome P450 2D6) was 0.00562 µM (inconclusive) and the AC50 (Cytochrome P450 2C9) was 0.0631 µM (inconclusive).
For `COc1ccc(C/N=C(\C#N)C2=C(O)c3ccccc3C2=O)cc1`, the IC50 (cells) was 45.7 µM (active).
In the case of `O=C(N/N=C/c1ccccn1)c1ccc(NC(=O)c2ccc(F)cc2)cc1`, the EC50 [1] was > 112 µM (not active) and the EC50 [2] was > 112 µM (not active).
With `Cc1cc(C(=O)N/N=C/c2ccc(OC(=O)c3ccccc3Br)cc2)[nH]n1` the IC50 (cells) was 41.6 µM (active).
